{"source": "patent US20230346717A1", "about": "“IDENTIFICATION AND USE OF COMPOUNDS IN THE TREATMENT OR PREVENTION OF SEVERE ACUTE RESPIRATORY SYNDROME CORONAVIRUS 2” (priority 2020, published 2023)", "assay_type_in_all_cases": "cell-based, human", "key": {"[1]": {"test_system": "N-acetyl-6-sulfatase", "assay": "Gene expression assay, lysosome gene N-acetyl-6-sulfatase", "details": "probe 212334_at; ARPE-19/HPV-16, 10 μM, 24 h", "from_the_text": "(§1) A drug screen was used to test agents having the potential to treat or prevent SARS-CoV-2 infection. The retinal pigment epithelia cell line, ARPE-19/HPV-16, was chosen to establish a database of drug profiles because of its non-cancerous, human origin, with a normal karyotype. ARPE-19/HPV-16 can be easily grown as monolayer in 96-well plates and expresses a variety of well known, neuronal, cell surface receptors that include the dopamine receptor D2, the serotonin receptors 1A, 2A, and 2C, the muscarinic receptor M3, and the histamine receptor H1.\n(§2) Cell lines were propagated according to supplier's specifications (ATCC Manassas, VA). Compounds were obtained from Sigma (St. Louis, MO) or Vanda Pharmaceuticals (Washington, DC). Cells were aliquoted on 96-well plates (˜2×10^5 cells/well) and incubated for 24 hours prior to providing fresh media with a drug, or the drug vehicle (water, dimethyl sulfoxide, ethanol, methanol, or phosphate-buffered saline solution). Drugs were diluted 1000-fold in buffered Advanced D-MEM/F-12 culture medium (Invitrogen, Carlsbad, CA) containing nonessential amino acids and 110 mg/L sodium pyruvate. […]\n(§3) Cells were harvested 24 hours after treatment and RNA was extracted using the RNeasy 96 protocol (Qiagen, Valencia, CA). […] A total of 708 microarrays were analyzed including 74 for 18 antipsychotics, 499 for 448 other compounds, and 135 for vehicle controls. […]"}, "[2]": {"test_system": "ceroid-lipofuscinosis", "assay": "Gene expression assay, lysosome gene ceroid-lipofuscinosis", "details": "ARPE-19/HPV-16, 10 μM, 24 h", "from_the_text": "as §1\n(§4) Cell lines were propagated according to supplier's specifications (ATCC Manassas, VA). Compounds were obtained from Sigma (St. Louis, MO) or Vanda Pharmaceuticals (Washington, DC). Cells were aliquoted on 96-well plates (˜2×10^5 cells/well) and incubated for 24 hours prior to providing fresh media with a drug, or the drug vehicle (water, dimethyl sulfoxide, ethanol, methanol, or phosphate-buffered saline solution). Drugs were diluted 1000-fold in buffered Advanced D-MEM/F-12 culture medium (Invitrogen, Carlsbad, CA) containing nonessential amino acids and 110 mg/L sodium pyruvate. In these conditions, no significant changes of pH were expected, which was confirmed by the monitoring of the pH indicator present in the medium.\n(§5) A final 10 μM drug concentration was chosen because it is believed to fit in the range of physiological relevance. Microscopic inspection of each well was conducted at the end of the treatment to discard any samples where cells had morphological changes consistent with apoptosis. It was also verified that the drug had not precipitated in the culture medium.\n(§6) Cells were harvested 24 hours after treatment and RNA was extracted using the RNeasy 96 protocol (Qiagen, Valencia, CA). Gene expression for 22,238 probe sets of 12,490 genes was generated with U133A2.0 microarrays following the manufacturer's instructions (Affymetrix, Santa Clara, CA). Drugs were profiled in duplicate or triplicate, with multiple vehicle controls on each plate. A total of 708 microarrays were analyzed including 74 for 18 antipsychotics, 499 for 448 other compounds, and 135 for vehicle controls.\n(§7) The raw scan data were first converted to average difference values using MAS 5.0 (Affymetrix). The average difference values of both treatment and control data were set to a minimum threshold of 50 if below 50. For each treatment instance, all probe sets were then ranked based on their amplitude, or level of expression relative to the vehicle control (or average of controls when more than one was used). Amplitude was defined as the ratio of expression (t−v)/[(t+v)/2] where t corresponds to treatment instance and v to vehicle instance. […]"}, "[3]": {"test_system": "lysosome pathway genes", "assay": "Enrichment analysis of genes downregulated by amantadine (top 500 differentially expressed probes)", "details": "ARPE-19/HPV-16, 10 μM, 24 h", "from_the_text": "as §1, §2, §3"}, "[4]": {"test_system": "CPQ", "assay": "Gene expression assay, lysosome gene CPQ", "details": "ARPE-19/HPV-16, 10 μM, 24 h", "from_the_text": "as §1, §4, §5, §6, §7"}, "[5]": {"test_system": "steroid sulfatase (microsomal)", "assay": "Gene expression assay, lysosome gene steroid sulfatase (microsomal)", "details": "probe 203767_s_at; ARPE-19/HPV-16, 10 μM, 24 h", "from_the_text": "as §1, §2, §3"}, "[6]": {"test_system": "PCYOX1", "assay": "Gene expression assay, lysosome gene PCYOX1", "details": "probe 203803_at; ARPE-19/HPV-16, 10 μM, 24 h", "from_the_text": "as §1, §2, §3"}, "[7]": {"test_system": "SCARB2", "assay": "Gene expression assay, lysosome gene SCARB2", "details": "probe 201647_s_at; ARPE-19/HPV-16, 10 μM, 24 h", "from_the_text": "as §1, §2, §3"}, "[8]": {"test_system": "MAR3", "assay": "Gene expression assay, lysosome gene MAR3", "details": "probe 213256_at; ARPE-19/HPV-16, 10 μM, 24 h", "from_the_text": "as §1, §2, §3"}, "[9]": {"test_system": "CTSB", "assay": "Gene expression assay, lysosome gene CTSB", "details": "probe 213274_s_at; ARPE-19/HPV-16, 10 μM, 24 h", "from_the_text": "as §1, §2, §3"}, "[10]": {"test_system": "CTSL", "details": "ARPE-19/HPV-16 cells, 10 μM drug, 24 hours", "description": "Each drug group profile was created using a novel Weighted Influence Model, Rank of Ranks (WIMRR) method which underscores the rank of each probe set across the entire gene expression profile rather than the specific change in expression level. WIMRR takes the average rank of each probe set across all of the members of the group and then re-ranks the probe sets from smallest average rank to largest average rank. A gene-set enrichment metric based on the Kolmogorov-Smirnov (KS) statistic.\nApplicant analyzed expression profile of CTSL across all 466 drugs tested. In order to find positive hits and selected only those results that caused decrease of CTSL expression by at least 33% (1.5-fold down)."}, "[11]": {"test_system": "RAB38", "assay": "Gene expression assay, lysosome gene RAB38", "details": "probe 219412_at; ARPE-19/HPV-16, 10 μM, 24 h", "from_the_text": "as §1, §2, §3"}, "[12]": {"test_system": "CD164", "assay": "Gene expression assay, lysosome gene CD164", "details": "probe 208654_s_at; ARPE-19/HPV-16, 10 μM, 24 h", "from_the_text": "as §1, §2, §3"}, "[13]": {"test_system": "LAMP1", "assay": "Gene expression assay, lysosome gene LAMP1", "details": "probe 201551_s_at; ARPE-19/HPV-16, 10 μM, 24 h", "from_the_text": "as §1, §2, §3"}, "[14]": {"test_system": "GJA1", "assay": "Gene expression assay, lysosome gene GJA1", "details": "probe 201667_at; ARPE-19/HPV-16, 10 μM, 24 h", "from_the_text": "as §1, §2, §3"}, "[15]": {"test_system": "AGA", "details": "ARPE-19/HPV-16, 10 μM, 24 h"}, "[16]": {"test_system": "BCL10", "assay": "Gene expression assay, lysosome gene BCL10", "details": "probe 205263_at; ARPE-19/HPV-16, 10 μM, 24 h", "from_the_text": "as §1, §2, §3"}, "[17]": {"test_system": "CTSH", "assay": "Gene expression assay, lysosome gene CTSH", "details": "probe 202295_s_at; ARPE-19/HPV-16, 10 μM, 24 h", "from_the_text": "as §1, §2, §3"}}, "note": "Where a name gives a salt, the structure may show the parent alone. Read-outs that look alike come from different tables or passages of the source."}
{"smiles": "NC12CC3CC(CC(C3)C1)C2", "note": "[Amantadine Hydrochloride]", "values": [{"measurement": "avg_tx (log2) N-acetyl-6-sulfatase", "setting": "[1]", "result": 9.71, "unit": "log2"}, {"measurement": "diff (log2) N-acetyl-6-sulfatase", "setting": "[1]", "result": "−1.27", "unit": "log2"}, {"measurement": "avg_tx (log2) ceroid-lipofuscinosis", "setting": "[2]; probe 204085_s_at", "result": 5.93, "unit": "log2"}, {"measurement": "diff (log2) ceroid-lipofuscinosis", "setting": "[2]; probe 204085_s_at", "result": "−1.74", "unit": "log2"}, {"measurement": "avg_tx (log2) ceroid-lipofuscinosis", "setting": "[2]; probe 214252_s_at", "result": 6.13, "unit": "log2"}, {"measurement": "diff (log2) ceroid-lipofuscinosis", "setting": "[2]; probe 214252_s_at", "result": "−1.57", "unit": "log2"}, {"measurement": "expression reduction of the top 500 differentially expressed probes (383 genes)", "setting": "[3]", "result": "at least 50%"}, {"measurement": "avg_tx (log2) CPQ", "setting": "[4]; probe 203501_at", "result": 6.41, "unit": "log2"}, {"measurement": "diff (log2) CPQ", "setting": "[4]; probe 203501_at", "result": "−1.55", "unit": "log2"}, {"measurement": "avg_tx (log2) CPQ", "setting": "[4]; probe 208454_s_at", "result": 7.3, "unit": "log2"}, {"measurement": "diff (log2) CPQ", "setting": "[4]; probe 208454_s_at", "result": "−1.34", "unit": "log2"}, {"measurement": "avg_tx (log2) steroid sulfatase (microsomal)", "setting": "[5]", "result": 5.55, "unit": "log2"}, {"measurement": "diff (log2) steroid sulfatase (microsomal)", "setting": "[5]", "result": "−1.47", "unit": "log2"}, {"measurement": "avg_tx (log2) PCYOX1", "setting": "[6]", "result": 7.15, "unit": "log2"}, {"measurement": "diff (log2) PCYOX1", "setting": "[6]", "result": "−1.57", "unit": "log2"}, {"measurement": "avg_tx (log2) SCARB2", "setting": "[7]", "result": 6.97, "unit": "log2"}, {"measurement": "diff (log2) SCARB2", "setting": "[7]", "result": "−1.63", "unit": "log2"}, {"measurement": "avg_tx (log2) MAR3", "setting": "[8]", "result": 5.55, "unit": "log2"}, {"measurement": "diff (log2) MAR3", "setting": "[8]", "result": "−1.57", "unit": "log2"}, {"measurement": "avg_tx (log2) CTSB", "setting": "[9]", "result": 7.75, "unit": "log2"}, {"measurement": "diff (log2) CTSB", "setting": "[9]", "result": "−1.48", "unit": "log2"}, {"measurement": "log2(treated) CTSL", "setting": "[10]", "result": 9.62, "unit": "log2"}, {"measurement": "log2 difference (CTSL, treated vs control)", "setting": "[10]", "result": "−0.70", "unit": "log2"}, {"measurement": "avg_tx (log2) RAB38", "setting": "[11]", "result": 6.51, "unit": "log2"}, {"measurement": "diff (log2) RAB38", "setting": "[11]", "result": "−1.3", "unit": "log2"}, {"measurement": "avg_tx (log2) CD164", "setting": "[12]", "result": 8.7, "unit": "log2"}, {"measurement": "diff (log2) CD164", "setting": "[12]", "result": "−1.34", "unit": "log2"}, {"measurement": "avg_tx (log2) LAMP1", "setting": "[13]", "result": 7.87, "unit": "log2"}, {"measurement": "diff (log2) LAMP1", "setting": "[13]", "result": "−1.4", "unit": "log2"}, {"measurement": "avg_tx (log2) GJA1", "setting": "[14]", "result": 11.23, "unit": "log2"}, {"measurement": "diff (log2) GJA1", "setting": "[14]", "result": "−1.76", "unit": "log2"}, {"measurement": "avg_tx (log2) AGA", "setting": "[15]; probe 204332_s_at", "result": 9.18, "unit": "log2"}, {"measurement": "diff (log2) AGA", "setting": "[15]; probe 204332_s_at", "result": "−1.39", "unit": "log2"}, {"measurement": "avg_tx (log2) AGA", "setting": "[15]; probe 204333_s_at", "result": 6.57, "unit": "log2"}, {"measurement": "diff (log2) AGA", "setting": "[15]; probe 204333_s_at", "result": "−1.6", "unit": "log2"}, {"measurement": "avg_tx (log2) AGA", "setting": "[15]; probe 216064_s_at", "result": 8.12, "unit": "log2"}, {"measurement": "diff (log2) AGA", "setting": "[15]; probe 216064_s_at", "result": "−1.38", "unit": "log2"}, {"measurement": "avg_tx (log2) BCL10", "setting": "[16]", "result": 7.44, "unit": "log2"}, {"measurement": "diff (log2) BCL10", "setting": "[16]", "result": "−1.25", "unit": "log2"}, {"measurement": "avg_tx (log2) CTSH", "setting": "[17]", "result": 9.62, "unit": "log2"}, {"measurement": "diff (log2) CTSH", "setting": "[17]", "result": "−2.51", "unit": "log2"}]}
